In experiment [1] the target is Proto-oncogene tyrosine-protein kinase Src (Homo sapiens, UniProt P12931). Nature of the experiment: Inhibition of binding to Src SH2 domain.
The species named for experiment [2] is Oryctolagus cuniculus. Description: Ability to inhibit osteoclast mediated resorption of dentine in rabbit. It counts as functional.

Sequence of Proto-oncogene tyrosine-protein kinase Src (P12931 2-536 limits assumed): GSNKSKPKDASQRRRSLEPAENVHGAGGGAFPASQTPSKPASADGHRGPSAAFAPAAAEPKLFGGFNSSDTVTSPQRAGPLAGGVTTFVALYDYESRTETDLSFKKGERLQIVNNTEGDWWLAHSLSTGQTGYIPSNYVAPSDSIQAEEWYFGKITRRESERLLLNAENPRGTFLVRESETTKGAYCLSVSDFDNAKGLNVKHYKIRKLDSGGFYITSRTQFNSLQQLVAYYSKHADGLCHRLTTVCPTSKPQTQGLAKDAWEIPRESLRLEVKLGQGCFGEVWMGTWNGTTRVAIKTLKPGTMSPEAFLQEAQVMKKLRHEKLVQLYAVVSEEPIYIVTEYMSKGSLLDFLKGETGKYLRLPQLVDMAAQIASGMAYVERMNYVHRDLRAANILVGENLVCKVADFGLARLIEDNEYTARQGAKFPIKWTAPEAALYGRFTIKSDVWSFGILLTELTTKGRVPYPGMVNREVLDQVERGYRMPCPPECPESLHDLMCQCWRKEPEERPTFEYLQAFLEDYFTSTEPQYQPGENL

The term IC50 denotes the concentration that inhibits the measured activity by half. High values mean weaker potency in that assay, low ones greater potency in that assay. Take `CC(=O)N[C@@H](Cc1ccc(CP(=O)(O)O)cc1)C(=O)N[C@@H](C)c1ccc(OCC2CCCCC2)c(C(N)=O)c1`: the IC50 in experiment [1] was found to be 7900 nM.

Take `CC(=O)N[C@@H](Cc1ccc(C(P(=O)(O)O)P(=O)(O)O)cc1)C(=O)N[C@@H](C)c1ccc(OCC2CCCCC2)c(C(N)=O)c1`: the figures for the IC50 in experiment [2] and in experiment [1] were 2000 nM and 350 nM, respectively.

The values are drawn from ChEMBL document CHEMBL1134353, “X-Ray structure of citrate bound to Src SH2 leads to a high-affinity, bone-targeted Src SH2 inhibitor” (J Med Chem, 2001).
